Source: patent US20210145811A1, “TREATMENT OF CANCER WITH EXON 14 SKIPPING MUTATION(S) OR EXON 14 SKIPPING PHENOTYPE” (Eli Lilly and Company, priority 2016, published 2021)

Legend:
[1] = Body weight and health in Hs746t xenograft study; type: in vivo, mouse; conditions: groups treated with merestinib (6 or 12 mg/kg)
Method: (§1) Female athymic nude mice (Envigo) are used for this study. Food and water are available ad libitum. Animals are acclimated for 1 week prior to any experimental manipulation. The study is performed in accordance with AAALAC accredited institutional guidelines.
(§2) Hs746t cells are expanded in culture, harvested, and washed in Hank's Balanced Salt Solution (HBSS, GIBCO®). Approximately 5×10^6 cells in HBSS are implanted subcutaneously into the hind flank of the animal. When tumors reach an average size of 150 to 200 mm^3, the animals are randomized into groups of 7. Merestinib is prepared and administered via oral gavage at 6 or 12 mg/kg doses on a once daily schedule for 21 days.
Tumor volumes and body weight are measured bi-weekly. Statistical analysis is performed when 3 of the 7 vehicle treated animals hed been removed from the study due to tumor burden. Tumor volume is transformed to the log scale to equalize variance across time and treatment groups. The log volume data are analyzed with a two-way repeated measures analysis of variance by time and treatment using the MIXED procedures in SAS software (Version 9.3). The correlation model for the repeated measures is spatial power. Treated groups are compared to the control group at each time point. The MIXED procedure is also used separately for each treatment group to calculate adjusted means and standard errors at each time point. […]

phospho-MET (Y1234/1235) [2] = molecular target: T1, phospho-MET (Y1234/1235) (Homo sapiens, UniProt P08581); test: Western blotting of phospho-MET in MKN45 cells; type: cell-based; conditions: MKN45 cells (wild-type MET), 2 hours incubation, Western blot
T1 construct: MKN45 cells, expressing wild-type MET; host or cells: MKN45
Method: (§3) Hs746t cells are obtained from ATCC® (Manassas, Va.) and are maintained in DMEM Medium with L-glutamine and 10% fetal bovine serum (FBS). MKN45 cells, expressing wild-type MET, are obtained from JCRB Cell Bank (Japan) and are maintained in RPMI 1640 Medium with L-glutamine, 10% FBS, and sodium pyruvate. Cells are grown at 37° C. with 5% CO2. Cells are seeded into 6-well plates, 1 million cells/well, and incubated overnight. Cells are incubated with merestinib for 2 hours, then are lysed in radioimmunoprecipitation assay (RIPA) buffer containing protease inhibitors. Protein concentrations of cell lysates are measured with the DC™ Protein Assay (BioRad), following manufacturer directions. Lysates are electrophoresed on Novex® 4-20% Tris Glycine gels (Invitrogen), and are transferred onto polyvinylidene difluoride (PVDF) membranes. The blots are probed for total MET (clone D1C2, CELL SIGNALING TECHNOLOGY®, Cat #8198), phospho-MET (Y1234/1235, clone D26, CELL SIGNALING TECHNOLOGY®, Cat #3077), and phospho-MET (Y1003, clone 13D11, CELL SIGNALING TECHNOLOGY®, Cat #3135). Monoclonal Anti-β-Actin (clone AC-15, SIGMA-ALDRICH®, Cat #A5441) is used as a loading control. After incubating with horseradish peroxidase (HRP)-linked secondary antibodies, blots are developed with chemiluminescent substrate and imaged on a Lumi-Imager (Roche).

Hs746t cells = test: Cell proliferation assay (CELL TITER-GLO); type: cell-based; conditions: Homo sapiens, 120 h, 5 days exposure, n=2, read-out: IC50 in vitro Hs746t cell proliferation
Method: Hs746t cells are seeded onto poly-D-lysine, 96-well plates, 3000 cells/well and allowed to attach overnight in a 37° C. with 5% CO2 incubator. Merestinib is serially diluted 1:3 and added to the cells in triplicate. After 120 hours, cell viability is measured with the CELL TITER-GLO® Luminescent Cell Viability Assay (Promega), following manufacturer directions. The data are analyzed with GraphPad Prism v6 software. The assay is performed in duplicate experiments.

phospho-MET (Y1234/1235) [3] = molecular target: T2, phospho-MET (Y1234/1235) (Homo sapiens, UniProt P08581, DEL964-1010); test: Western blotting of phospho-MET in Hs746t cells; type: cell-based; conditions: Hs746t cells (MET exon 14 skipping), 2 hours incubation, Western blot
T2 construct: Western blots performed on lysates from in vitro cultured cells confirm a strong band corresponding to MET protein; host or cells: Hs746t
Method: as §3

Hs746t-derived xenograft = test: In vivo Hs746t xenograft model; parameters: species or system mouse
Method: as §1
Merestinib is formulated as a solution in 10% PEG 400/90% (20% Captisol in water). Solution is freshly prepared every 7 days.
as §2, with “Merestinib is prepared and administered via oral gavage at 6 or 12 mg/kg doses on a once daily schedule for 21 days.” left out
Animals are sacrificed using CO2 and cervical dislocation when tumors grew larger than 2000 mm^3.
Tumor volumes and body weight are measured bi-weekly. Statistical analysis is performed when 3 of the 7 vehicle treated animals hed been removed from the study due to tumor burden. Tumor volume is transformed to the log scale to equalize variance across time and treatment groups. The log volume data are analyzed with a two-way repeated measures analysis of variance by time and treatment using the MIXED procedures in SAS software (Version 9.3). The correlation model for the repeated measures is spatial power. Treated groups are compared to the control group at each time point. The MIXED procedure is also used separately for each treatment group to calculate adjusted means and standard errors at each time point. Both analyses account for the autocorrelation within each animal and the loss of data that occurs when animals are removed or lost before the end of the study. The adjusted means and standard errors are plotted for each treatment group versus time.
Measure tumor growth with calipers. Calculate tumor volumes by the formula Volume (mm^3)=L×W^2 (π/6) where L represents the larger diameter and W the smaller diameter. Calculate T/C % using the formula T/C %=100×ΔT/ΔC. Where ΔT=mean tumor volume of the drug-treated group on the final day of the study−mean tumor volume of the drug-treated group on the initial day of the dosing and ΔC=mean tumor volume of the control group on the final day of the study−mean tumor volume of the control group on the initial day of the dosing. Calculate changes in body weight by the formula (Weight on observation day−Weight on day 12)/Weight on Day 12×100.

phosphorylated MET at the Y1234/1235 position (phospho-MET (Y1234/1235) [2]): inhibited
phosphorylated MET at the Y1234/1235 position (phospho-MET (Y1234/1235) [3]): inhibited
SMILES: Cc1ccc(C(=O)Nc2ccc(Oc3cc4cnn(C)c4cc3-c3cn[nH]c3)c(F)c2)c(=O)n1-c1ccc(F)cc1 [merestinib, N-(3-Fluoro-4-(1-methyl-6-(1H-pyrazol-4-yl)-1H-indazol-5-yloxy)phenyl)-1-(4-fluorophenyl)-6-methyl-2-oxo-1,2-dihydropyridine-3-carboxamide]
health issues in the animals [1]: no noticeable health issues
IC50 (Hs746t cells): 33.4 nM
tumors showing signs of regrowth (2 consecutively larger tumor volume measurements) (Hs746t-derived xenograft; 6 mg/kg oral gavage once daily, end of study): 5 of the 7
anti-tumor activity T/C (Hs746t-derived xenograft; 6 mg/kg oral gavage once daily, end of study, p=0.033 vs vehicle): 18.3%
tumor regression (Hs746t-derived xenograft; 12 mg/kg oral gavage once daily, to the end of the study): 91.8%
tumor re-growth after treatment is terminated (Hs746t-derived xenograft; 12 mg/kg, 5 weeks after treatment terminated): no tumor re-growth was observed
animals that are complete responders (Hs746t-derived xenograft; 12 mg/kg, 64 days of dosing): 6 of the 7
tumor re-growth during treatment (treatment resistance) (Hs746t-derived xenograft; 12 mg/kg, within 2 months of treatment): No tumor re-growth is observed
